Experiment [1] has as its target T1, SULT1E1 (Homo sapiens, UniProt P49888).
T1 construct: made in house; host or cells: E. coli
T1 sequence (P49888 1-294): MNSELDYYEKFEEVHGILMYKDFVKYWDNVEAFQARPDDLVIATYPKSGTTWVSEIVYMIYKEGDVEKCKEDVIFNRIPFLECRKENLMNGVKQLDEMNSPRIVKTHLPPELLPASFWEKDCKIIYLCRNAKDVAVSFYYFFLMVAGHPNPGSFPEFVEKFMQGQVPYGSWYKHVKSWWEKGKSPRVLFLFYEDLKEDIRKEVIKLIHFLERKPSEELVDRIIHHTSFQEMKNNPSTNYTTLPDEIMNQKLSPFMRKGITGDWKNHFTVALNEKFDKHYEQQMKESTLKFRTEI
Description: 35S-PAPS radioassay of SULT1E1 inhibition. The class given is biochemical. The conditions noted are these: 35S-radioassay.

Experiment [2] addresses T1, SULT1E1. Description: Inhibition of SULT1E1 measured with the FPIA-based assay. The format is biochemical. The protocol:
Specifically, FIG. 25 is a graph showing inhibition of SULT1E1 by 2,6 Dichloro-4-nitrophenol (DCNP) measured with the FPIA-based assay. DCNP was serially diluted two-fold into wells in 46 uL of phosphate assay buffer (30 mM KPO4 (pH 6.5), 0.5 mg/mL BGG, 15 mM DTT, 1.6 mM MgCl2, 4 μM PAPS), followed by 50 μl of a 2× Antibody/tracer mix (5 uL 3642 Ab/2 nM Tracer C8-PAP-F14), and 200 ng of SULTIE in a total volume of 100 μl. The plate was incubated at room temp for 30 min, and read on the Tecan Ultra. AmP values were calculated by subtracting the SULT1E reactions from the no SULTIE controls. All values represent the mean of replicates.

Take `O=[N+]([O-])c1cc(Cl)c(O)c(Cl)c1` [DCNP, 2,6 Dichloro-4-nitrophenol]: the results for the Ki on SULT1E1 [1] and at SULT1E1 [2] were 11 mM and 7.8 mM, respectively.

The record behind these values is patent US8088897B2, “Assay method for group transfer reactions” (BellBrook Labs, Inc., priority 2003, dated 2012).
